Patent US20240050428A1 (Cullgen (Shanghai), Inc., priority 2020, published 2024)
Like-named read-outs stand apart in the source and are kept apart here.

Experiments:
[1] = test system: MOLM-13 cells; test: Cell viability assay (CellTiter-Glo) in MOLM-13 cells, alone or with gilteritinib; assay type: cell-based; conditions: Homo sapiens, MOLM-13 cells, CellTiter-Glo
[2] = test system: MV4;11 cells; test: Cell viability assay (CellTiter-Glo) in MV4;11 cells, alone or with gilteritinib; assay type: cell-based; conditions: Homo sapiens, MV4;11 cells, CellTiter-Glo, read-out: MV4
[3] = MOLM-13, 72 h, compound alone (without gilteritinib), three days, read-out: MOLM-13 IC50
[4] = MOLM-13, 72 h, with gilteritinib 20 nM, three days, read-out: MOLM-13 IC50 gilteritinib
[5] = MV4-11, 72 h, compound alone (without gilteritinib), three days, 11 IC50
[6] = MV4-11, 72 h, with gilteritinib 10 nM, three days, 11 IC50 gilteritinib
[7] = MOLM-13, 72 h, compound with gilteritinib 20 nM, three days, read-out: MOLM-13 IC50 gilteritinib
[8] = MV4-11, 72 h, compound with gilteritinib 10 nM, three days, 11 IC50 gilteritinib

Structure (SMILES)	IC50 [1, 3]	IC50 [1, 4]	IC50 [2, 5]	IC50 [2, 6]	IC50 [1, 7]	IC50 [2, 8]	other results
CNc1ccc(-c2cn([C@H]3C[C@H](CNc4ccc5c(c4)C(=O)N(C4CCC(=O)NC4=O)C5=O)C3)nc2C2CC2)nc1 (stereo partly drawn) [GS-301, 5-(((trans-3-(3-Cyclopropyl-4-(5-(methylamino)pyridin-2-yl)-1H-pyrazol-1-yl)cyclobutyl)methyl)amino)-2-(2,6-dioxopiperidin-3-yl)isoindoline-1,3-dione]	> 1 µM	0.1 to 1 µM	> 1 µM	0.1 to 1 µM			
O=C1CCC(N2C(=O)c3ccc(NC[C@H]4C[C@H](n5cc(-c6ncccn6)c(C6CC6)n5)C4)cc3C2=O)C(=O)N1 (stereo partly drawn) [GS-599, 5-(((trans-3-(3-Cyclopropyl-4-(pyrimidin-2-yl)-1H-pyrazol-1-yl)cyclobutyl)methyl)amino)-2-(2,6-dioxopiperidin-3-yl)isoindoline-1,3-dione]	0.1 to 1 µM		0.1 to 1 µM		0.1 to 1 µM	0.01 to 0.1 µM	
Cc1nn([C@H]2C[C@H](CCCNc3ccc4c(c3)C(=O)N(C3CCC(=O)NC3=O)C4=O)C2)cc1-c1cnc2c(C3CCN(C)CC3)cccc2n1 (stereo partly drawn) [GS-418, 2-(2,6-dioxopiperidin-3-yl)-5-((3-(trans-3-(3-methyl-4-(5-(1-methylpiperidin-4-yl)quinoxalin-2-yl)-1H-pyrazol-1-yl)cyclobutyl)propyl)amino)isoindoline-1,3-dione]	0.01 to 0.1 µM		0.01 to 0.1 µM		< 0.01 µM	< 0.01 µM	
CN(C)c1ccnc(-c2cn([C@H]3C[C@H](CNc4ccc5c(c4)C(=O)N(C4CCC(=O)NC4=O)C5=O)C3)nc2C2CC2)c1 (stereo partly drawn) [GS-606, 5-(((trans-3-(3-Cyclopropyl-4-(4-(dimethylamino)pyridin-2-yl)-1H-pyrazol-1-yl)cyclobutyl)methyl)amino)-2-(2,6-dioxopiperidin-3-yl)isoindoline-1,3-dione]	> 1 µM		> 1 µM		> 1 µM	> 1 µM	
O=C1CCC(N2C(=O)c3ccc(NCCCCC(=O)N4CCC(n5cc(-c6cnc7ccc(N8CCNCC8)cc7n6)c(C6CC6)n5)CC4)cc3C2=O)C(=O)N1 (stereo not shown) [GS-211, 5-((5-(4-(3-Cyclopropyl-4-(7-(piperazin-1-yl)quinoxalin-2-yl)-1H-pyrazol-1-yl)piperidin-1-yl)-5-oxopentyl)amino)-2-(2,6-dioxopiperidin-3-yl)isoindoline-1,3-dione]	0.01 to 0.1 µM	< 0.01 µM	0.01 to 0.1 µM	< 0.01 µM			
O=C1CCC(N2C(=O)c3ccc(NCCCCCC(=O)N4CCC(N5CCC(c6cnc7ccccc7n6)C5)CC4)cc3C2=O)C(=O)N1 (stereo not shown) [GS-015, 2-(2,6-Dioxopiperidin-3-yl)-5-((6-oxo-6-(4-(3-(quinoxalin-2-yl)pyrrolidin-1-yl)piperidin-1-yl)hexyl)amino)isoindoline-1,3-dione]							IC50 ([1]; MOLM-13, 72 h, with 20 nM gilteritinib, 3 days, read-out: MOLM-13 IC50 gilteritinib): 0.03 µM; IC50 ([1]; MOLM-13, 72 h, without gilteritinib, 3 days, read-out: MOLM-13 IC50): > 10 µM; IC50 ([2]; MV4-11, 72 h, with 10 nM gilteritinib, 3 days, 11 IC50 gilteritinib): 2.78 µM; IC50 ([2]; MV4-11, 72 h, without gilteritinib, 3 days, 11 IC50): > 10 µM
O=C1CCC(N2C(=O)c3ccc(NCCCCCCn4cc(-c5ccccc5)cn4)cc3C2=O)C(=O)N1 (stereo not shown) [GS-496, 2-(2,6-dioxopiperidin-3-yl)-5-((6-(4-phenyl-1H-pyrazol-1-yl)hexyl)amino)isoindoline-1,3-dione]							IC50 ([1]; 72 h, compound alone (without gilteritinib), three days, read-out: MOLM-13 IC50): 0.1 to 1 µM; IC50 ([1]; 72 h, compound with gilteritinib 20 nM, three days, read-out: MOLM-13 IC50 gilteritinib): 0.01 to 0.1 µM; IC50 ([2]; 72 h, compound alone (without gilteritinib), three days, 11 IC50): 0.1 to 1 µM; IC50 ([2]; 72 h, compound with gilteritinib 10 nM, three days, 11 IC50 gilteritinib): 0.01 to 0.1 µM
O=C1CCC(N2Cc3c(Nc4ccnc(NCCC(=O)N5CCC(n6cc(-c7cnc8ccccc8n7)cn6)CC5)n4)cccc3C2=O)C(=O)N1 (stereo not shown) [GS-085, 3-(1-Oxo-4-((2-((3-oxo-3-(4-(4-(quinoxalin-2-yl)-1H-pyrazol-1-yl)piperidin-1-yl)propyl)amino)pyrimidin-4-yl)amino)isoindolin-2-yl)piperidine-2,6-dione]	> 1 µM	> 1 µM	> 1 µM	> 1 µM			
CN1CCN(c2nccc(-c3cnn([C@H]4C[C@H](CCCNc5ccc6c(c5)C(=O)N(C5CCC(=O)NC5=O)C6=O)C4)c3)n2)CC1 (stereo partly drawn) [GS-436, 2-(2,6-dioxopiperidin-3-yl)-5-((3-(trans-3-(4-(2-(4-methylpiperazin-1-yl)pyrimidin-4-yl)-1H-pyrazol-1-yl)cyclobutyl)propyl)amino)isoindoline-1,3-dione]	> 1 µM		> 1 µM		0.1 to 1 µM	0.1 to 1 µM	
O=C1CCC(N2C(=O)c3ccc(NCCCCCC(=O)N4CCC(n5cc(-c6cnc7cccc(C8CCNCC8)c7n6)cn5)CC4)cc3C2=O)C(=O)N1 (stereo not shown) [GS-044, 2-(2,6-dioxopiperidin-3-yl)-5-((6-oxo-6-(4-(4-(8-(piperidin-4-yl)quinoxalin-2-yl)-1H-pyrazol-1-yl)piperidin-1-yl)hexyl)amino)isoindoline-1,3-dione]	0.01 to 0.1 µM	< 0.01 µM	0.01 to 0.1 µM	< 0.01 µM			
CN(C)c1ccc(-c2cn([C@H]3C[C@H](CNc4ccc5c(c4)C(=O)N(C4CCC(=O)NC4=O)C5=O)C3)nc2C2CC2)nc1 (stereo partly drawn) [GS-276, 5-(((trans-3-(3-Cyclopropyl-4-(5-(dimethylamino)pyridin-2-yl)-1H-pyrazol-1-yl)cyclobutyl)methyl)amino)-2-(2,6-dioxopiperidin-3-yl)isoindoline-1,3-dione]	0.1 to 1 µM	0.01 to 0.1 µM	0.01 to 0.1 µM	< 0.01 µM			

Now from value to compound, other results behind:

IC50 [1, 3]	IC50 [1, 4]	IC50 [2, 5]	IC50 [2, 6]	IC50 [1, 7]	IC50 [2, 8]	Structure (SMILES)	other results
0.1 to 1 µM	0.01 to 0.1 µM	0.1 to 1 µM	0.01 to 0.1 µM			O=C1CCC(N2C(=O)c3ccc(NCCC[C@H]4C[C@H](n5cc(-c6cnc7ccccc7n6)cn5)C4)cc3C2=O)C(=O)N1 (stereo partly drawn) [GS-176, 2-(2,6-Dioxopiperidin-3-yl)-5-((3-(trans-3-(4-(quinoxalin-2-yl)-1H-pyrazol-1-yl)cyclobutyl)propyl)amino)isoindoline-1,3-dione]	
> 1 µM	0.01 to 0.1 µM	> 1 µM	> 1 µM			O=C1CCC(N2C(=O)c3ccc(NCCCCC4(N5CCC(n6cc(-c7cnc8ccccc8n7)cn6)CC5)CC4)cc3C2=O)C(=O)N1 (stereo not shown) [GS-124, 2-(2,6-Dioxopiperidin-3-yl)-5-((4-(1-(4-(4-(quinoxalin-2-yl)-1H-pyrazol-1-yl)piperidin-1-yl)cyclopropyl)butyl)amino)isoindoline-1,3-dione]	
0.1 to 1 µM	0.01 to 0.1 µM	0.1 to 1 µM	0.01 to 0.1 µM			CNc1cccc(-c2cnn([C@H]3C[C@H](CCCNc4ccc5c(c4)C(=O)N(C4CCC(=O)NC4=O)C5=O)C3)c2)n1 (stereo partly drawn) [GS-251, 2-(2,6-Dioxopiperidin-3-yl)-5-((3-(trans-3-(4-(6-(methylamino)pyridin-2-yl)-1H-pyrazol-1-yl)cyclobutyl)propyl)amino)isoindoline-1,3-dione]	
0.1 to 1 µM	0.01 to 0.1 µM	0.1 to 1 µM	0.01 to 0.1 µM			O=C1CCC(N2C(=O)c3ccc(NC[C@H]4C[C@H](n5cc(-c6cnc7ccc(C8CCOCC8)cc7n6)cn5)C4)cc3C2=O)C(=O)N1 (stereo partly drawn) [GS-180, 2-(2,6-Dioxopiperidin-3-yl)-5-(((trans-3-(4-(7-(tetrahydro-2H-pyran-4-yl)quinoxalin-2-yl)-1H-pyrazol-1-yl)cyclobutyl)methyl)amino)isoindoline-1,3-dione]	
> 1 µM	0.01 to 0.1 µM	0.1 to 1 µM	0.01 to 0.1 µM			Cc1nn([C@H]2C[C@@H](CCCNc3ccc4c(c3)C(=O)N(C3CCC(=O)NC3=O)C4=O)C2)cc1-c1cnc2ccccc2n1 (stereo partly drawn) [GS-168, 2-(2,6-Dioxopiperidin-3-yl)-5-((3-(cis-3-(3-methyl-4-(quinoxalin-2-yl)-1H-pyrazol-1-yl)cyclobutyl)propyl)amino)isoindoline-1,3-dione]	
> 1 µM		> 1 µM		0.01 to 0.1 µM	0.1 to 1 µM	O=C1CCC(N2C(=O)c3cccc(NCCCC4CC(n5cc(-c6cnc7ccccc7n6)cn5)C4)c3C2=O)C(=O)N1 (stereo not shown) [GS-565, 2-(2,6-Dioxopiperidin-3-yl)-4-((3-(3-(4-(quinoxalin-2-yl)-1-pyrazol-1-yl)cyclobutyl)propyl)amino)isoindoline-1,3-dione]	
0.1 to 1 µM		0.01 to 0.1 µM		0.01 to 0.1 µM	< 0.01 µM	Cc1ccnc(-c2cnn([C@H]3C[C@H](CCCNc4ccc5c(c4)C(=O)N(C4CCC(=O)NC4=O)C5=O)C3)c2)c1 (stereo partly drawn) [GS-603, 2-(2,6-Dioxopiperidin-3-yl)-5-((3-(trans-3-(4-(4-methylpyridin-2-yl)-1H-pyrazol-1-yl)cyclobutyl)propyl)amino)isoindoline-1,3-dione]	
0.01 to 0.1 µM	< 0.01 µM	0.01 to 0.1 µM	< 0.01 µM			O=C1CCC(N2C(=O)c3ccc(NCCC[C@H]4C[C@H](n5cc(-c6cnc7ccc(N8CCOCC8)cc7n6)cn5)C4)cc3C2=O)C(=O)N1 (stereo partly drawn) [GS-188, 2-(2,6-Dioxopiperidin-3-yl)-5-((3-(trans-3-(4-(7-morpholinoquinoxalin-2-yl)-1H-pyrazol-1-yl)cyclobutyl)propyl)amino)isoindoline-1,3-dione]	
